Measurements reported in US4562068A, “Sebosuppressive cosmetic preparations containing aryloxobutenoic acid derivatives” (Henkel Kommanditgesellschaft auf Aktien, priority 1982, dated 1985).

Test system: brown cutaneous surface lipid of the rats
Assay: Testing for anti-seborrheic activity: brown discoloration (brown cutaneous surface lipid) on shaved backs of male Wistar rats after topical application
Format: in vivo
Settings: 9 applications in 14 days; for Evaluation Method 1 (percentage of evaluators recognizing an effect): topical on one side of back fur, 6 male Wistar rats
From the text: The anti-seborrheic activity of aryloxobutenoic acid derivatives was examined closely in the animal experiments described hereinafter. The experimental animals were male Wistar rats weighing from 220 to 230 gm. A degree of brown discoloration on the shaved backs of the rats was established visually; the brown discoloration was caused by the brown cutaneous surface lipid of the rats. This test is based upon the observation that young female rats as well as male rats that were washed with tenside solution and a lipid solvent, respectively, as well as male rats that were treated systematically with estrogen, show only the normal light-colored pink skin after shaving; parallel to this, only relatively very small amounts of lipid can be extracted from the shorn hair.
For evaluation of anti-seborrheic activity, the test substances set forth in the table below, each in solution in ethanol, were each brushed on one side of the back fur of six rats. The other side was treated only with the solvent without the active substance (control side). During the testing period of 14 days, application of test substance was made once a day on a total of 9 days. A group of 6 rats that remained completely untreated served as an additional control. At the end of the testing, the animals were shaved on the back and the flanks and inspected visually, this inspection being done independently by an evaluation panel (6 persons) under doubleblind conditions.
Three criteria were rated. The first criterion was whether the majority of the evaluators recognized the treated side properly. The differentiations were as follows:
The second criterion was the difference between the right and left sides, one point each to be given per evaluator and animal, in the manner that the darker side was rated 1, the lighter side was rated 0, and uniformity of both sides were rated 0.5.
Significant differences between the untreated and the treated side according to the second method of evaluation indicate the topical effectiveness of a substance.
The third criterion was the rating of the difference in intensity of the brown shades according to the following scale:
According to the third method of evaluation, the differences in the point totals between the untreated control animals and the treated and untreated sides, respectively, of the experimental animal group were calculated where significant differences between control animals and the treated side of the experimental animals indicate the effect of a substance. Similarly, a distinct difference between the untreated and the treated sides of the experimental animal groups is also generally noticeable. However, this is not always as distinct as that between control animals and treated sides, which may be due to various reasons, as, for example, mechanical transfer of substance from one side to the other or solvent influence.
The differentiation of the effects according to the methods of evaluation 2 and 3 was characterized in the following manner:
In addition, the percentage of sebum reduction was calculated by dividing the point difference (ΔP) by the number of points for the control group (Pk) and multiplying by 100%, as follows: […]

[1] = Rattus norvegicus, 336 h, 0.1% in ethanol, topical, point difference (ΔP) / points of control group (Pk) x 100%, read-out: Sebum Reduction
[2] = Rattus norvegicus, 336 h, 0.5% in ethanol, topical, point difference (ΔP) / points of control group (Pk) x 100%, read-out: Sebum Reduction

SMILES	Evaluation Method 1 (percentage of evaluators recognizing an effect) (0.1% in ethanol)	inhibition in vivo at 0.1 % [1] [%]	also measured
CCOC(=O)C=CC(=O)c1ccc(Cl)cc1Cl [Example 10, 4-(2',4'-Dichloro-phenyl)-4-oxo-but-2-enoic acid ethyl ester]	++ (100%)	27	–
CCOC(=O)C=CC(=O)c1ccc(NC(C)=O)cc1 [Example 9, 4-(4'-Acetylamino-phenyl)-4-oxo-but-2-enoic acid ethyl ester]	++ (100%)	84	–
CC(C)OC(=O)C=CC(=O)c1ccccc1 [Example 3, 4-Phenyl-4-oxo-but-2-enoic isopropyl ester]	++ (100%)	68	–
CCOC(=O)C=CC(=O)c1ccc(OC)c(OC)c1 [Example 5, 4-(3',4'-Dimethoxy-phenyl)-4-oxo-but-2-enoic acid ethyl ester]	++ (100%)	65	–
CCCCOc1ccc(C(=O)C=CC(=O)OCC)cc1 [Example 6, 4-(4'-Butoxy-phenyl)-4-oxo-but-2-enoic acid ethyl ester]	–	–	Evaluation Method 1 (percentage of evaluators recognizing an effect) (0.5% in ethanol): ++ (100%); inhibition in vivo at 0.5 % [2]: 42%
CCOC(=O)C=CC(=O)c1ccc(OC)c(OC)c1O [Example 8, 4-(3',4'-Dimethoxy-2'-hydroxy-phenyl)-4-oxo-but-2-enoic acid ethyl ester]	–	–	Evaluation Method 1 (percentage of evaluators recognizing an effect) (0.5% in ethanol): ++ (100%); inhibition in vivo at 0.5 % [2]: 69%
CCOC(=O)C=CC(=O)c1ccccc1 [Example 2, 4-Phenyl-4-oxo-but-2-enoic ethyl ester]	++ (100%)	–	–
CCOC(=O)C=CC(=O)c1ccc(Cl)cc1 [Example 1, 4-(4'-Chloro-phenyl)-4-oxo-but-2-enoic acid ethyl ester]	–	–	Evaluation Method 1 (percentage of evaluators recognizing an effect) (0.25% in ethanol): ++ (100%); inhibition in vivo at 0.25 % (Rattus norvegicus, 336 h, 0.25% in ethanol, topical, point difference (ΔP) / points of control group (Pk) x 100%, read-out: Sebum Reduction): 84%
CCCCOC(=O)C=CC(=O)c1ccccc1 [Example 4, 4-Phenyl-4-oxo-but-2-enoic acid butyl ester]	++ (100%)	66	–
